This passage reports EC50 and CC50 results from patent US11661420B2 (NANJING HEPO PHARMACEUTICAL CO., LTD, priority 2019, dated 2023).

pEC50: −log10 of the molar value. Read-outs that look alike come from different tables or passages of the source.

As a reminder, the pEC50 is −log10 of the EC50, conventionally taken in molar units. In general, CC50 refers to the concentration that lowers cell viability or growth by half.

For series [1], the system named is HBV DNA. Conditions: cited from earlier work.
The test system of series [2] is HBsAg. To be noted: cited from earlier work.
The conditions of series [3]: read-out: CC50 cytotoxicity; cited from earlier work.
The test system of series [4] is HBV DNA. Kind of series: Cryopreserved PHH assay, real-time qPCR of HBV DNA in culture supernatant. The format is cell-based, type D HBV in human primary hepatocytes (PHH). To be noted: Hepatitis B virus, 240 h; PHH infected with type D HBV, supernatant day 10, qPCR. As for the experimental part:
(§1) The inhibitory effect of the compounds on HBV was evaluated by real-time quantitative qPCR assay (real time-qPCR) to detect the HBV DNA content in human primary hepatocytes (PHH) culture supernatant, and ELISA to detect the hepatitis B surface antigen and e antigen content, the EC50 value of the compounds was used as an indicator; meanwhile, the cell viability was detected by CellTiter-Glo to evaluate the toxicity of the compounds to cells.
(§2) 3.1. On day 0, PHH (1.32×10^5 cells/well) was seeded into a 48-well plate and incubated overnight at 37° C., 5% CO2.
(§3) 3.2. On the first day, PHH was infected with type D HBV (concentrated from HepDE19 cell culture supernatant).
(§4) 3.3 On the second day, the test compound was diluted to 7 concentrations with 5-fold serial dilution. Reference compound Peg-IFN-α 2a, 7 concentrations with 3-fold serial dilution. Compounds with different concentrations were added to the culture wells, and the wells were double-duplicated wells. The final concentration of DMSO in the culture medium was 2%.
(§5) 3.4 On the 4th, 6th, and 8th day, the culture medium was replaced by a fresh culture medium containing the compound.
(§6) 3.5 After collecting the culture supernatant from the culture well on the 10th day, the cell viability was tested with CellTiter-Glo. A portion of the culture supernatant was collected for ELISA determination to detect the content of hepatitis B virus surface antigen and e antigen; a portion of the sample was collected for extract DNA using a high-throughput DNA purification kit, referring to the product instructions for the specific steps.
3.6 Quantitative PCR to detect the content of HBV DNA
The qPCR reaction mixture, sample and standard were added to the 384 well reaction plate. PCR reactions: 95° C., 10 min; 95° C., 15 sec, 60° C., 1 min, 40 cycles.
(§7) Calculation of the inhibition percentage of HBV DNA, HBV surface antigen and e antigen. % Inh.=(1−value of the sample/value of DMSO control)×100.
For orientation: Quantitative PCR measures a nucleic acid by following its amplification.

The nature of series [5]: Cryopreserved PHH assay, cell viability by CellTiter-Glo. It is filed as cell-based. To be noted: human, cryopreserved primary human hepatocytes (PHH), day 10, CellTiter-Glo. As for the experimental part:
as §1, §2, §4, §5, §6
Calculation of the percentage of cell viability: % viability=the luminescence value of the sample/the luminescence value of the DMSO control×100.
(In ATP-based viability assays light output follows the ATP content of the culture.)

The subject of series [6] is HBV surface antigen (HBsAg). Description: Cryopreserved PHH assay, ELISA of hepatitis B surface antigen in culture supernatant. The format is cell-based, type D HBV in human primary hepatocytes (PHH). Conditions: Hepatitis B virus, 240 h, read-out: HBsAg EC50. As for the experimental part:
as §1, §2, §3, §4, §5, §6
(§8) 3.7 ELISA determination of hepatitis B virus surface antigen and e antigen
(§9) The specific steps can be referred to the product manual, the steps are briefly described as follows: 50 μL of sample and standard was added to the reaction plate respectively, 50 μL of enzyme conjugate was added to each well, the mixture was shaken and mixed well, then kept in a warm bath at 37° C. for 60 minutes, the plate was washed with washing solution for 5 times, 50 μL of the luminescent substrate was added to each well, the mixture was mixed well, and the reaction was carried out in the dark at room temperature for 10 minutes, and finally the chemiluminescence intensity was detected with the instrument.
as §7
For orientation: An ELISA detects its analyte on a solid surface through an enzyme-linked reagent.

In series [7] the test system is HBV e antigen (HBeAg). Kind of series: Cryopreserved PHH assay, ELISA of hepatitis B e antigen in culture supernatant. It is filed as cell-based, type D HBV in human primary hepatocytes (PHH). To be noted: Hepatitis B virus, 240 h, read-out: HBeAg EC50. Here is the method: as §1, §2, §3, §4, §5, §6, §8, §9, §7

As to `Clc1cc2nc(N3CCN(c4ccccn4)CC3)[nH]c2cc1Cl` [BM601], the pEC50 in series [1] was 6.22; in series [2], 5.82. Besides, the CC50 in series [3] was 24.5 µM.
Regarding `CC1(C)N=C(c2ccc(-c3ccc(C(=O)O)cc3)cn2)Nc2c(Cl)cccc21` [Compound I-48, 4-(6-(8-chloro-4,4-dimethyl-1,4-dihydroquinazolin-2-yl)pyridin-3-yl)benzoic acid], the pEC50 in series [4] is 5.40; in series [6], less than 4.30; in series [7], 6.37. This molecule also showed a CC50 at 8 days in series [5] greater than 50 µM.
With `CC1(C)N=C(c2ncc(-c3ccc(C(=O)O)cc3)cn2)Nc2c(Cl)cccc21` [Compound I-49, 4-(2-(8-chloro-4,4-dimethyl-1,4-dihydroquinazolin-2-yl)pyrimidin-5-yl)benzoic acid], the negative logarithm of the EC50 (pEC50) is 4.96 in series [4], less than 4.30 in series [6] and 4.38 in series [7]. Also, the CC50 at 8 days in series [5] is greater than 50 µM.
Consider `CC1(C)N=C(c2cc(-c3ccc(C(=O)O)cc3)co2)Nc2c(Cl)cccc21` [Compound I-50, 4-(5-(8-chloro-4,4-dimethyl-1,4-dihydroquinazolin-2-yl)furan-3-yl)benzoic acid], for which the pEC50 in series [4] is 7.11; in series [6] it was 6.99; in series [7] it was 7.27. The same molecule yielded a 50% cytotoxic concentration (CC50) at 8 days in series [5] greater than 50 µM.
Turning to `CC1(C)N=C(c2cc(-c3ccc(C(=O)O)cc3)c[nH]2)Nc2c(Cl)cccc21` [Compound I-51, 4-(5-(8-chloro-4,4-dimethyl-1,4-dihydroquinazolin-2-yl)-1H-pyrrol-3-yl)benzoic acid], the negative logarithm of the EC50 (pEC50) in series [4] is 8.01; in series [6], less than 4.30; in series [7] it was 8.00. Moreover, the CC50 at 8 days in series [5] is greater than 50 µM.
As to `CC1(C)N=C(c2nc(-c3ccc(C(=O)O)cc3)co2)Nc2c(Cl)cccc21` [Compound I-53, 4-(2-(8-chloro-4,4-dimethyl-1,4-dihydroquinazolin-2-yl)oxazol-4-yl)benzoic acid], the pEC50 in series [4] was 8.08; in series [6], 6.94; in series [7], 8.25. The molecule also returned a 50% cytotoxic concentration (CC50) at 8 days in series [5] greater than 50 µM.
As for `CC1(C)N=C(c2nc(-c3ccc(C(=O)O)cc3)c[nH]2)Nc2ccccc21` [Compound I-54, 4-(2-(4,4-dimethyl-1,4-dihydroquinazolin-2-yl)-1H-imidazol-4-yl)benzoic acid], the negative logarithm of the EC50 (pEC50) was 7.60 in series [4], 6.49 in series [6] and 7.39 in series [7]. This molecule yielded a CC50 at 8 days in series [5] greater than 50 µM.
Turning to `CC1(C)N=C(c2nc(-c3ccc(C(=O)O)cc3)cs2)Nc2c(OC(F)(F)F)cccc21` [Compound I-65, 4-(2-(4,4-dimethyl-8-trifluoromethoxyl-1,4-dihydroquinazolin-2-yl)thiazol-4-yl)benzoic acid], the pEC50 is 8.52 in series [4], 7.40 in series [6] and 8.48 in series [7]. In series [5], this molecule gave a CC50 at 8 days greater than 50 µM.
For `CC1(C)N=C(c2nc(-c3ccc(C(=O)NS(C)(=O)=O)cc3)cs2)Nc2ccccc21` [Compound I-66], in that order: 7.52, 6.43, 7.50 and greater than 50 µM.
As for `CC1(C)OC(c2nc(-c3ccc(C(=O)O)cc3)cs2)=Nc2ccccc21` [Compound I-67, 4-(2-(4,4-dimethyl-4H-benzo[d] [1,3]oxazin-2-yl)thiazol-4-yl)benzoic acid], the results for the pEC50 in series [4], in series [6] and in series [7] were 7.75, 6.83 and 8.38, respectively. In addition, the CC50 at 8 days in series [5] was greater than 50 µM.
For the molecule `CC1(C)N=C(c2nc(-c3ccc(C(=O)O)cc3)cs2)Oc2ccccc21` [Compound I-68, 4-(2-(4,4-dimethyl-4H-benzo[e] [1,3]oxazin-2-yl)thiazol-4-yl)benzoic acid], the negative logarithm of the EC50 (pEC50) in series [4] was 7.09; in series [6], 6.24; in series [7] it was 7.77. Moreover, the CC50 at 8 days in series [5] was greater than 50 µM.
As to `CCC1(CC)N=C(c2nc(-c3ccc(C(=O)O)cc3)cs2)Nc2ccccc21` [Compound I-69, 4-(2-(4,4-diethyl-1,4-dihydroquinazolin-2-yl)thiazol-4-yl)benzoic acid], the results for the pEC50 in series [4], in series [6] and in series [7] were 7.77, 7.25 and 7.95, respectively. The molecule also returned a CC50 at 8 days in series [5] greater than 50 µM.
Turning to `CC1(C)N=C(c2nc(-c3ccc(C(=O)O)cc3)cs2)Nc2c(F)cc(F)cc21` [Compound I-70, 4-(2-(6,8-difluoro-4,4-dimethyl-1,4-dihydroquinazolin-2-yl)thiazol-4-yl)benzoic acid], the pEC50 in series [4] is 8.15; in series [6], 7.39; in series [7], 8.28. Also, the CC50 at 8 days in series [5] is greater than 50 µM.
With `CC1(C)N=C(c2nc(-c3ccc(C(N)=O)cc3)cs2)Nc2ccccc21` [Compound I-71, 4-(2-(4,4-dimethyl-1,4-dihydroquinazolin-2-yl)thiazol-4-yl)benzamide], the negative logarithm of the EC50 (pEC50) in series [4] was 7.50; in series [6], 7.03; in series [7] it was 7.83. The molecule also yielded a CC50 at 8 days in series [5] greater than 50 µM.
As for `CC1(C)N=C(c2nc(-c3ccc(-c4nnn[nH]4)cc3)cs2)Nc2ccccc21` [Compound I-72], the pEC50 was 5.09 in series [4], 4.76 in series [6] and 5.09 in series [7]. The molecule also came in with a CC50 at 8 days in series [5] greater than 50 µM.
For the molecule `CCOC(=O)c1ccc(-c2csc(C3=NC(C)(C)c4ccccc4N3)n2)cc1` [Compound I-73], the pEC50 in series [4] was 7.87; in series [6], 6.94; in series [7], 7.92. In series [5], this molecule displayed a CC50 at 8 days greater than 50 µM.
